Data from ChEMBL document CHEMBL1201862, “PubChem BioAssay data set” (2004).
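Step 1: Grow cells in 96-well plates. Step 2: Expose to compound for 48 hours at 5 concentrations. Step 3: Interpolate endpoints linearly; if unreached, use highest concentration. Here, GI50 denotes the concentration required for 50% inhibition of growth.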 Active and inactive are the calls of the source. Cut-off read from the data, not from the text of the source: active = GI50 up to about 1.1 µM and inactive = higher.

How the values were obtained:
Test in all cases: NCI anticancer screen, dose series, 48 h
786-0 = test system: 786-0
M14 = test system: M14
SR = test system: SR
SNB-75 = test system: SNB-75
SN12C = test system: SN12C
COLO 205 = test system: COLO 205
KM12 = test system: KM12
MDA-MB-435 = test system: MDA-MB-435
Malme-3M = test system: Malme-3M
MOLT-4 = test system: MOLT-4
BT-549 = test system: BT-549
SK-MEL-28 = test system: SK-MEL-28
HT-29 = test system: HT-29
NCI-H522 = test system: NCI-H522
LOX IMVI = test system: LOX IMVI
RXF 393 = test system: RXF 393
HOP-92 = test system: HOP-92
Hs-578T = test system: Hs-578T
SF-268 = test system: SF-268
DMS-273 = test system: DMS-273

Row | Compound | GI50 (786-0) | GI50 (M14) | GI50 (SR) | GI50 (SNB-75) | GI50 (SN12C) | GI50 (COLO 205) | GI50 (KM12) | GI50 (MDA-MB-435) | GI50 (Malme-3M) | GI50 (MOLT-4) | GI50 (BT-549) | GI50 (SK-MEL-28) | GI50 (HT-29) | GI50 (NCI-H522) | GI50 (LOX IMVI) | GI50 (RXF 393) | GI50 (HOP-92) | GI50 (Hs-578T) | GI50 (SF-268) | GI50 (DMS-273)
1 | [O-][N+]1(CC[N+]2([O-])CCCCC2)CCCCC1 | > 100 µM (inactive) | > 100 µM (inactive) | > 100 µM (inactive) | > 100 µM (inactive) | > 100 µM (inactive) | > 100 µM (inactive) | > 100 µM (inactive) | > 100 µM (inactive) | > 100 µM (inactive) | > 100 µM (inactive) | > 100 µM (inactive) | > 100 µM (inactive) | > 100 µM (inactive) | > 100 µM (inactive) | > 100 µM (inactive) | > 100 µM (inactive) | > 100 µM (inactive) | > 100 µM (inactive) | > 100 µM (inactive) | 
2 | CCCCC(C#N)(OP1(=O)OC(c2ccccc2)C(C)N1C)c1ccccc1 (stereo not given) | 17.3 µM (inactive) | 20.7 µM (inactive) | 19.9 µM (inactive) | 18.2 µM (inactive) | 16.7 µM (inactive) | 17.8 µM (inactive) | 19.6 µM (inactive) | 17.7 µM (inactive) | 15.6 µM (inactive) | 15.7 µM (inactive) | 20.3 µM (inactive) | 16.3 µM (inactive) | 18.1 µM (inactive) | 17.2 µM (inactive) | 18.9 µM (inactive) | 16.6 µM (inactive) | 12.4 µM (inactive) | 16.3 µM (inactive) | 17.4 µM (inactive) | 
3 | CC(C)(C)c1ccc2c(c1)S(=O)(=O)Nc1cccc(c1)NS(=O)(=O)c1cc(C(C)(C)C)ccc1OCCOCCO2 | > 100 µM (inactive) | > 100 µM (inactive) |  | > 100 µM (inactive) | > 100 µM (inactive) | > 100 µM (inactive) | > 100 µM (inactive) |  | > 100 µM (inactive) | > 100 µM (inactive) |  | > 100 µM (inactive) | > 100 µM (inactive) |  | > 100 µM (inactive) | 6.49 µM (inactive) | 50.6 µM (inactive) |  | > 100 µM (inactive) | > 100 µM (inactive)
4 | Cc1ccc(S(=O)(=O)N/N=C(\c2nc3ccc(Cl)cc3[nH]c2=O)C(O)c2ccco2)cc1 (stereo not given) | > 100 µM (inactive) | > 100 µM (inactive) |  | > 100 µM (inactive) |  | > 100 µM (inactive) | 66.8 µM (inactive) |  | > 100 µM (inactive) | 28.1 µM (inactive) |  | > 100 µM (inactive) | > 100 µM (inactive) |  | > 100 µM (inactive) | > 100 µM (inactive) | > 100 µM (inactive) |  | > 100 µM (inactive) | > 100 µM (inactive)
5 | COc1cc(S(=O)(=O)Nc2ccc(-c3csc(/N=C\c4ccccc4)n3)cc2)ccc1Cl | 81.3 µM (inactive) | 56.1 µM (inactive) | 29.8 µM (inactive) | 62.7 µM (inactive) | > 100 µM (inactive) | 36.4 µM (inactive) | 36.4 µM (inactive) | 34.1 µM (inactive) | > 100 µM (inactive) | 12.7 µM (inactive) | 41.4 µM (inactive) | 33.7 µM (inactive) | 44.2 µM (inactive) | 29.9 µM (inactive) | 43.9 µM (inactive) | 1.44 µM (inactive) | > 100 µM (inactive) | 53.3 µM (inactive) | 32 µM (inactive) | 
6 | CCOC(=O)/C=C(\C(=O)OCC)n1ccc(=O)n(Cc2cn(CCCCOC(C)=O)nn2)c1=O | 7.66 µM (inactive) | 23.9 µM (inactive) | 10.1 µM (inactive) | 19.5 µM (inactive) | 15.2 µM (inactive) | 2.89 µM (inactive) | 16 µM (inactive) | 5 µM (inactive) | 2.18 µM (inactive) | 2.4 µM (inactive) | 10.4 µM (inactive) | 8.17 µM (inactive) | 8.05 µM (inactive) | 1.72 µM (inactive) | 14.9 µM (inactive) | 12 µM (inactive) | 2.55 µM (inactive) | 22.7 µM (inactive) | 17.7 µM (inactive) | 
7 | CC(C)(C)NC(=O)[C@H]1CC[C@H]2[C@@H]3CC=C4NC(=O)CC[C@]4(C)[C@H]3CC[C@]12C | 90.2 µM (inactive) | > 100 µM (inactive) | > 100 µM (inactive) | 22.6 µM (inactive) | > 100 µM (inactive) | > 100 µM (inactive) | > 100 µM (inactive) | > 100 µM (inactive) | > 100 µM (inactive) | > 100 µM (inactive) | > 100 µM (inactive) | > 100 µM (inactive) | > 100 µM (inactive) | 36.4 µM (inactive) | > 100 µM (inactive) | > 100 µM (inactive) | 97.9 µM (inactive) | 50.9 µM (inactive) | 54.6 µM (inactive) | 
8 | c1ccc(/C(=N\Nc2nc3ccccc3[nH]2)c2ccccn2)cc1 | 0.31 µM (active) | 0.361 µM (active) | 0.348 µM (active) | 0.531 µM (active) | 0.415 µM (active) | < 0.0207 µM (active) | 0.735 µM (active) | 0.755 µM (active) | 0.687 µM (active) | 0.012 µM (active) | 1.19 µM (inactive) | 1.14 µM (inactive) | 0.0101 µM (active) | 0.25 µM (active) | 0.516 µM (active) | 0.716 µM (active) | 0.238 µM (active) | 5.5 µM (inactive) | 0.443 µM (active) | 
9 | OC1OC2COC(c3ccccc3)OC2C(O)C1O (stereo not given) | > 100 µM (inactive) | > 100 µM (inactive) |  |  | > 100 µM (inactive) | > 100 µM (inactive) | > 100 µM (inactive) |  | > 100 µM (inactive) | > 100 µM (inactive) |  |  | > 100 µM (inactive) | > 100 µM (inactive) | > 100 µM (inactive) |  | > 100 µM (inactive) |  | > 100 µM (inactive) | > 100 µM (inactive)
10 | Cc1ccc(/C=C2\CCC/C(=C\c3ccc(O)c(CN4CCCCC4)c3)C2=O)cc1 | 3.72 µM (inactive) | 3.73 µM (inactive) | 3.71 µM (inactive) | 6.49 µM (inactive) | 9.82 µM (inactive) | 5.2 µM (inactive) | 3.01 µM (inactive) | 3.41 µM (inactive) | 17.3 µM (inactive) | 3.6 µM (inactive) | 6.62 µM (inactive) | 15.7 µM (inactive) | 1.87 µM (inactive) | 3.85 µM (inactive) | 3.18 µM (inactive) | 14.1 µM (inactive) | 9.71 µM (inactive) | 7.78 µM (inactive) | 3.14 µM (inactive) | 
11 | CCN(CC)c1nc(=O)c(C(=O)C(C)(C)C)c(C(C)(C)C)o1 | > 100 µM (inactive) | > 100 µM (inactive) | > 100 µM (inactive) | > 100 µM (inactive) | > 100 µM (inactive) | > 100 µM (inactive) | > 100 µM (inactive) | > 100 µM (inactive) | > 100 µM (inactive) | > 100 µM (inactive) | > 100 µM (inactive) | > 100 µM (inactive) | > 100 µM (inactive) | > 100 µM (inactive) | > 100 µM (inactive) | > 100 µM (inactive) | > 100 µM (inactive) | > 100 µM (inactive) | > 100 µM (inactive) | 
12 | CC(C)=CC(=O)C/C(=N\NC(N)=S)C(=O)Nc1ccc(Cl)cc1 | > 100 µM (inactive) | > 100 µM (inactive) |  | 79.8 µM (inactive) | > 100 µM (inactive) | > 100 µM (inactive) | > 100 µM (inactive) |  | > 100 µM (inactive) | > 100 µM (inactive) |  | > 100 µM (inactive) | > 100 µM (inactive) |  | > 100 µM (inactive) | > 100 µM (inactive) |  |  | > 100 µM (inactive) | > 100 µM (inactive)
13 | COc1cc(C2c3cc4c(cc3[C@@H](Nc3ccc(C#N)cc3)C3COC(=O)[C@H]23)OCO4)cc(OC)c1O (stereo not given in full) | 0.724 µM (active) | 1.35 µM (inactive) | 0.261 µM (active) | 2.6 µM (inactive) | 1.05 µM (active) | 6.38 µM (inactive) | 5.33 µM (inactive) | 8.77 µM (inactive) | 1.29 µM (inactive) | 0.274 µM (active) | 7.74 µM (inactive) | 6.97 µM (inactive) | 3.05 µM (inactive) | 1.88 µM (inactive) | 1.08 µM (active) | 1.41 µM (inactive) | 1.02 µM (active) | 5.09 µM (inactive) | 2.43 µM (inactive) | 
14 | NS(=O)(=O)c1ccc(/N=N/c2cccnc2O)cc1 | > 100 µM (inactive) | > 100 µM (inactive) | > 100 µM (inactive) | > 100 µM (inactive) | > 100 µM (inactive) | > 100 µM (inactive) | > 100 µM (inactive) | > 100 µM (inactive) | > 100 µM (inactive) | > 100 µM (inactive) | > 100 µM (inactive) | > 100 µM (inactive) | > 100 µM (inactive) | > 100 µM (inactive) | > 100 µM (inactive) | > 100 µM (inactive) | > 100 µM (inactive) | > 100 µM (inactive) | > 100 µM (inactive) | 
15 | O=c1ccc2cc(O)c(O)cc2o1 [ESCULETIN] | > 100 µM (inactive) | > 100 µM (inactive) | > 100 µM (inactive) | > 100 µM (inactive) | > 100 µM (inactive) | > 100 µM (inactive) | > 100 µM (inactive) | > 100 µM (inactive) | > 100 µM (inactive) | > 100 µM (inactive) | > 100 µM (inactive) | > 100 µM (inactive) | > 100 µM (inactive) | > 100 µM (inactive) | > 100 µM (inactive) | > 100 µM (inactive) | > 100 µM (inactive) | > 100 µM (inactive) | > 100 µM (inactive) | 
